ChEMBL document CHEMBL1177670 (Bioorg Med Chem, 2010)
pKi: −log10 of the molar value. The source made the active and inactive calls. No cut-off for these calls is given here.

Columns and labels:
D(3) dopamine receptor [1] = molecular target: T1, D(3) dopamine receptor (Homo sapiens, UniProt P35462); test: biochemical
D(4) dopamine receptor [2] = molecular target: T2, D(4) dopamine receptor (Homo sapiens, UniProt P21917); test: biochemical
T2 sequence (P21917 whole entry): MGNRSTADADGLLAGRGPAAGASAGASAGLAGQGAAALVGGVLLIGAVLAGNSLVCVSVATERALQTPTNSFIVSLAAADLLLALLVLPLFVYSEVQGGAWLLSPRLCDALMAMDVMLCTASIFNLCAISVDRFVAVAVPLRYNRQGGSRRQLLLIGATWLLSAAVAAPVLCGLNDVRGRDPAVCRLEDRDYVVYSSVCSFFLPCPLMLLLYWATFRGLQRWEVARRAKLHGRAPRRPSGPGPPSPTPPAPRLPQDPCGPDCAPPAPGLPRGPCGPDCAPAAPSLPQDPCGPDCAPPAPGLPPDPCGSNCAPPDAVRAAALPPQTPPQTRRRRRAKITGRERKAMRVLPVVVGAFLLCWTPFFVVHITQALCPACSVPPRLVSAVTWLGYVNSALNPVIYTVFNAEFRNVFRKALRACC

D(2) dopamine receptor [3] = molecular target: T3, D(2) dopamine receptor (Homo sapiens, UniProt P14416); test: biochemical
T3 sequence (P14416 whole entry): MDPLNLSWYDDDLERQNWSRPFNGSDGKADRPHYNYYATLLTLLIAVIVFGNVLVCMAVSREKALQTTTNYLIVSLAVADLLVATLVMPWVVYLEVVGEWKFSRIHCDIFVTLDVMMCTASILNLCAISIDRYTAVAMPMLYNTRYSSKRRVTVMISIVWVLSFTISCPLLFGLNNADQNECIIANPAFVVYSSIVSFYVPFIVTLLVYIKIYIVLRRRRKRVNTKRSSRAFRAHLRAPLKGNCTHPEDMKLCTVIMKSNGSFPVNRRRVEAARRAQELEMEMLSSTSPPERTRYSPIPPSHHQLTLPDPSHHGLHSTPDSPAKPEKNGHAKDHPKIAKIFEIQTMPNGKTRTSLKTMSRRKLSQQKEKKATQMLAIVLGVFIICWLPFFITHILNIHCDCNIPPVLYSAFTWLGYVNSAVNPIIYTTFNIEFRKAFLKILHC

D(2) dopamine receptor [4] = molecular target: T3, D(2) dopamine receptor; test: Antagonist at human dopamine D2 long receptor expressed in HEK293 cells assessed as inhibition of forskolin-induced adenylyl cyclase activity at 10 nM after 20 mins by spectrophotometric analysis in presence of quinpirole; type: functional, cell-based
D(2) dopamine receptor [5] = molecular target: T3, D(2) dopamine receptor
D(3) dopamine receptor [6] = molecular target: T1, D(3) dopamine receptor
D(4) dopamine receptor [7] = molecular target: T2, D(4) dopamine receptor
[8] = molecular target: T4, Sigma non-opioid intracellular receptor 1 (Cavia porcellus, UniProt Q60492)
T4 sequence (Q60492 whole entry): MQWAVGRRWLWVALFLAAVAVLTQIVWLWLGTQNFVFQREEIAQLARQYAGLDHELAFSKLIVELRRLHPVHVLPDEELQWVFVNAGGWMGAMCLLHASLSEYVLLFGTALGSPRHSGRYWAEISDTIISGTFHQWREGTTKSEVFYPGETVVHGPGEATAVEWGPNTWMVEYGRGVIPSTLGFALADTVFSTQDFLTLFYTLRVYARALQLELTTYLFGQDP
Description: (§1) Displacement of [3H](+)-pentazocine from sigma 1 receptor in guinea pig brain homogenates after 1 hr by liquid scintillation counting

[9] = molecular target: T4, Sigma non-opioid intracellular receptor 1; test: biochemical
Description: as §1

T1 sequence (P35462 whole entry): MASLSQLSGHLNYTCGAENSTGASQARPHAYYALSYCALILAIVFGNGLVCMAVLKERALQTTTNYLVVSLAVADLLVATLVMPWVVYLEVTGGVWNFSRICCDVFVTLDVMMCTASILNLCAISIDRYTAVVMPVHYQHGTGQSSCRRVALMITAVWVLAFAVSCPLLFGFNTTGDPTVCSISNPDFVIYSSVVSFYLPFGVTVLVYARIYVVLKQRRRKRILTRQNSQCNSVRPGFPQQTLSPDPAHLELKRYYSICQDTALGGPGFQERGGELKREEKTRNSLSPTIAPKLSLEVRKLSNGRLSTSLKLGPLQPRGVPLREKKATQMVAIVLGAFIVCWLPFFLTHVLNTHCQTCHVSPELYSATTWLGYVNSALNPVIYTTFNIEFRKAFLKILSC

## OC1(c2ccc(Br)cc2)CCN(Cc2c[nH]c3cccc(OCCF)c23)CC1
D(3) dopamine receptor [1]
  pKi: 6.07
D(4) dopamine receptor [2]
  pKi: 6.18

## OC1(c2ccc(I)cc2)CCN(Cc2coc3ccccc23)CC1
D(2) dopamine receptor [3]
  pKi: 8.62

## O=C1N(Cc2cn(CCF)nn2)CN(c2ccccc2)C12CCN(Cc1coc3ccccc13)CC2
D(2) dopamine receptor [3]
  pKi: 8.70
D(3) dopamine receptor [1]
  pKi: 9.05
D(4) dopamine receptor [2]
  pKi: 6.01

## COc1ccc2[nH]cc(CN3CCC(O)(c4ccccc4)CC3)c2c1
D(2) dopamine receptor [3]
  pKi: 5.86
D(3) dopamine receptor [1]
  pKi: 5.53
D(4) dopamine receptor [2]
  pKi: < 5.00

## COc1ccc2[nH]cc(CN3CCC(O)(c4ccc(I)cc4)CC3)c2c1
D(2) dopamine receptor [4]
  Activity: Active
D(2) dopamine receptor [3]
  pKi: 9.05
D(3) dopamine receptor [1]
  pKi: 7.00
D(4) dopamine receptor [2]
  pKi: 6.89

## OC1(c2ccc(Br)cc2)CCN(Cc2coc3ccccc23)CC1
D(2) dopamine receptor [3]
  pKi: 8.18
D(3) dopamine receptor [1]
  pKi: 7.96

## OC1(c2ccc(Br)cc2)CCN(Cc2cc3ccccc3o2)CC1
D(4) dopamine receptor [2]
  pKi: 6.60

## COc1cccc2[nH]cc(CN3CCC(O)(c4ccc(I)cc4)CC3)c12
D(2) dopamine receptor [4]
  Activity: Active
D(3) dopamine receptor [1]
  pKi: 6.91

## CN1CN(c2ccccc2)C2(CCN(Cc3coc4ccccc34)CC2)C1=O
D(2) dopamine receptor [3]
  pKi: 8.15
D(3) dopamine receptor [1]
  pKi: 8.68
D(4) dopamine receptor [2]
  pKi: 6.31

## COc1cccc2[nH]cc(CN3CCC(O)(c4ccc(Br)cc4)CC3)c12
D(2) dopamine receptor [5]
  pKi: 8.64
D(3) dopamine receptor [6]
  pKi: 6.72
D(4) dopamine receptor [7]
  pKi: 6.08
[8]
  pKi: 5.59

## OC1(c2ccc(Br)cc2)CCN(Cc2c[nH]c3ccccc23)CC1
D(2) dopamine receptor [5]
  pKi: 8.32
D(3) dopamine receptor [6]
  pKi: 6.96
D(4) dopamine receptor [7]
  pKi: 6.19
[8]
  pKi: 7.92

## OC1(c2ccc(I)cc2)CCN(Cc2cc3ccccc3o2)CC1
D(3) dopamine receptor [1]
  pKi: 7.31
D(4) dopamine receptor [2]
  pKi: 6.61

## CSc1ccc(C2(O)CCN(Cc3c[nH]c4ncccc34)CC2)cc1
D(2) dopamine receptor [3]
  pKi: 6.60
D(3) dopamine receptor [1]
  pKi: 5.31
D(4) dopamine receptor [2]
  pKi: 6.03

## OC1(c2ccccc2)CCN(Cc2cc3ccccc3s2)CC1
D(2) dopamine receptor [3]
  pKi: 7.33
D(3) dopamine receptor [1]
  pKi: 6.85
[9]
  pKi: 8.67

## COc1ccc2[nH]cc(CN3CCC(O)(c4ccc(Cl)cc4)CC3)c2c1
D(2) dopamine receptor [5]
  pKi: 8.38
D(3) dopamine receptor [6]
  pKi: 6.69
D(4) dopamine receptor [7]
  pKi: < 5.46
[8]
  pKi: 6.62

## OC1(c2ccc(Br)cc2)CCN(Cc2c[nH]c3ncccc23)CC1
D(2) dopamine receptor [3]
  pKi: 6.67
D(3) dopamine receptor [1]
  pKi: 5.53
D(4) dopamine receptor [2]
  pKi: 6.21

## OC1(c2ccc(Br)cc2)CCN(Cc2c[nH]c3ccc(OCCF)cc23)CC1
D(3) dopamine receptor [1]
  pKi: 6.73
D(4) dopamine receptor [2]
  pKi: 6.46

## O=C1N(CCF)CN(c2ccccc2)C12CCN(Cc1coc3ccccc13)CC2
D(2) dopamine receptor [3]
  pKi: 8.10
D(3) dopamine receptor [1]
  pKi: 8.03
D(4) dopamine receptor [2]
  pKi: 6.02

## COc1cccc2[nH]cc(CN3CCC(O)(c4ccc(Cl)cc4)CC3)c12
D(2) dopamine receptor [5]
  pKi: 8.38
D(3) dopamine receptor [6]
  pKi: 6.60
D(4) dopamine receptor [7]
  pKi: < 5.70
[8]
  pKi: < 5.30

## OC1(c2ccc(Cl)cc2)CCN(Cc2c[nH]c3ccccc23)CC1
D(3) dopamine receptor [6]
  pKi: 6.98
D(4) dopamine receptor [7]
  pKi: 6.35

## OC1(c2ccc(I)cc2)CCN(Cc2c[nH]c3ccccc23)CC1
D(2) dopamine receptor [3]
  pKi: 8.42

## OC1(c2ccc(I)cc2)CCN(Cc2c[nH]c3ncccc23)CC1
D(2) dopamine receptor [3]
  pKi: 7.21
D(3) dopamine receptor [1]
  pKi: 5.80
D(4) dopamine receptor [2]
  pKi: 6.20

## COc1ccc2[nH]cc(CN3CCC(O)(c4ccc(Br)cc4)CC3)c2c1
D(2) dopamine receptor [5]
  pKi: 8.60
D(4) dopamine receptor [7]
  pKi: 6.15
[8]
  pKi: 6.97
